Assays:
Type in all cases: physicochemical
[1] = Solubility and gelling ability with each liquid; critical gelation concentration by sample tube inversion method; details: physical form of the ester
[2] = as above; parameters: key: S: Soluble; I: Insoluble/separation; G: Gel; T: Thickening; EG: Emulsion gel
Protocol: The amide alcohol or ester of amide alcohol was heated and mixed with each liquid, and the critical gelation concentration was measured by sample tube inversion method.
Sample tube used: used tube: Maruemu screw tube No. 7 (trunk diameter 35 mm total length 78 mm)

[3] = Viscosity
[4] = Pigment dispersibility (wet point WP and flow point FP); details: titanium oxide, zinc oxide, iron oxide
Description: 1. Weigh 1.5 g of a pigment in mortar. 2. Gradually add an oil dropwise and knead with a pestle. 3. Check the weight of the oil at each point of WP and FP. 4. Calculate WP and FP per 100 g of the pigment. WP: Wet point (the lower the wet point, the better the wettability of the pigment.) FP: Flow point (the lower the flow point, the better the dispersibility of the pigment.)

| Property [1] | solubility and gelling ability ([2]; Ethanol) | solubility and gelling ability ([2]; Glycerin) | solubility and gelling ability ([2]; Octyldodecanol) | solubility and gelling ability ([2]; Octyldodecyl myristate) | solubility and gelling ability ([2]; Squalane) | solubility and gelling ability ([2]; Triethylhexanoin) | solubility and gelling ability ([2]; Water) | viscosity [3] | pigment dispersibility [4] | Compound |
| --- | --- | --- | --- | --- | --- | --- | --- | --- | --- | --- |
| Solid | G | I | G | G | G | G | I |  |  | CCCCCCCCCCCCCC(=O)OCCCC(=O)NCCCCCCCCCCCC [LBA-M, N-laurylbutyramide-4-myristic acid ester] |
| Solid | G | I | G | G | G | G | I |  |  | CCCCCCCCCCCCNC(=O)CCCOC(=O)CCCCCCCCCCC [LBA-L, N-laurylbutyramide-4-lauric acid ester] |
| Solid | S | I | G | G | G | G | I |  |  | CCCCCCCCCCCC(=O)OCCCC(=O)NCCCCCCCC [OBA-L, N-octylbutyramide-4-lauric acid ester] |
|  |  |  |  |  |  |  |  | approximately 230 mPa·s | excellent pigment dispersibility | N-cyclohexylbutyramide-4-isostearic acid ester [CHBA-IS] |
| Solid | S | I | S | S | I | I | I |  |  | CCCCCCCCCCCC(=O)OCCCC(=O)NCC(CC)CCCC (centres unmarked) [EHBA-L, N-2 ethylhexylbutyramide-4-lauric acid ester] |
| Solid | S | I | G | G | G | G | I |  |  | CCCCCCCCCCCC(=O)OCCCC(=O)NC1CCCCC1 [CHBA-L, N-cyclohexylbutyramide-4-lauric acid ester] |
|  |  |  |  |  |  |  |  | approximately 270 mPa·s | excellent pigment dispersibility | N-2 ethylhexylbutyramide 4-isostearic acid ester [EHBA-IS] |
